Reference: patent publication US12281122B1, “PI3K inhibitors” (Cogent Biosciences, Inc., priority 2023, dated 2025)

Tests used:
[1] = system: T47D (PI3Kα-H1047R) cell line; assay: HTRF phospho-AKT(S473) cell assay in T47D cells; format: cell-based, human
Procedure, shortened: (§1)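 T47D (PI3Kα-H1047R; RPMI, 10% FBS, insulin) and SKBR3 (wild-type PI3Kα; McCoy's 5A, 10% FBS) cells treated 2 h at 37 °C with 12-point 1:3 dilutions, top 5 μM and 10 μM respectively, ≤0.5% DMSO. SKBR3 stimulated with 70 ng/ml PDGF-BB for the last 15 min; lysate pAKT(S473) by HTRF, IC50 from curves.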

[2] = system: SKBR3 (PI3Kα-Wild Type) cell line; assay: HTRF phospho-AKT(S473) cell assay in SKBR3 cells; format: cell-based, human
Procedure, shortened: as §1

[3] = Homo sapiens; HTRF phospho-AKT(S473), T47D (PI3Kα-H1047R) cells, 2 hours compound incubation
[4] = Homo sapiens, SK-BR-3; HTRF phospho-AKT(S473), SKBR3 (PI3Kα-Wild Type) cells, 2 hours compound incubation, PDGF-BB stimulated
[5] = Homo sapiens; T47D (PI3Kα-H1047R) cells, HTRF phospho-AKT(S473), 2 hours compound incubation
[6] = Homo sapiens, SK-BR-3; SKBR3 (PI3Kα-Wild Type) cells, HTRF phospho-AKT(S473), 2 hours compound incubation, PDGF-BB stimulated

| SMILES | IC50 [1, 3] | IC50 [2, 4] | IC50 [1, 5] | IC50 [2, 6] |
| --- | --- | --- | --- | --- |
| Cc1cc([C@@H](C)Nc2ccc(Cl)nc2C(=O)NS(C)(=O)=O)c2nc(N3CCC[C@@H](c4nccc(C)n4)C3)n(C)c(=O)c2c1 (relative stereo) [Compound 647, 6-chloro-3-(((R)-1-(3,6-dimethyl-2-((R*)-3-(4-methylpyrimidin-2-yl)piperidin-1-yl)-4-oxo-3,4-dihydroquinazolin-8-yl)ethyl)amino)-N-(methylsulfonyl) picolinamide] | 250 to 500 nM | ≥ 5000 nM |  |  |
| Cc1cc([C@@H](C)Nc2ccc(Cl)nc2C(=O)NS(C)(=O)=O)c2nc(N3CCN(c4ncc(C#N)cc4F)CC3)n(C)c(=O)c2c1 [Compound 262, (R)-6-chloro-3-((1-(2-(4-(5-cyano-3-fluoropyridin-2-yl)piperazin-1-yl)-3,6-dimethyl-4-oxo-3,4-dihydroquinazolin-8-yl)ethyl)amino)-N-(methylsulfonyl) picolinamide] |  |  | < 250 nM | 1000 to 5000 nM |
| Cc1cc([C@@H](C)Nc2ccc(Cl)nc2C(=O)NS(C)(=O)=O)c2nc(-c3ccc4cn[nH]c4c3)n(C)c(=O)c2c1 [Compound 834, (R)-3-((1-(2-(1H-indazol-6-yl)-3,6-dimethyl-4-oxo-3,4-dihydroquinazolin-8-yl)ethyl)amino)-6-chloro-N-(methylsulfonyl) picolinamide] | 500 to 1000 nM | 1000 to 5000 nM |  |  |
| Cc1ccc(N2C[C@@H]3C[C@H]2CN3c2nc3c([C@@H](C)Nc4ccc(Cl)nc4C(=O)NS(C)(=O)=O)cc(C)cc3c(=O)n2C)nc1 [Compound 663, 6-chloro-3-(((R)-1-(3,6-dimethyl-2-((1S,4S)-5-(5-methylpyridin-2-yl)-2,5-diazabicyclo [2.2.1]heptan-2-yl)-4-oxo-3,4-dihydroquinazolin-8-yl)ethyl)amino)-N-(methylsulfonyl) picolinamide] | 500 to 1000 nM | > 5000 nM |  |  |
| Cc1cc([C@@H](C)Nc2ccc(Cl)nc2C(=O)NS(C)(=O)=O)c2nc(N3CCN(c4ccnc(C(F)F)n4)CC3)n(C)c(=O)c2c1 [Compound 649, (R)-6-chloro-3-((1-(2-(4-(2-(difluoromethyl)pyrimidin-4-yl)piperazin-1-yl)-3,6-dimethyl-4-oxo-3,4-dihydroquinazolin-8-yl)ethyl)amino)-N-(methylsulfonyl) picolinamide] | < 250 nM | 1000 to 5000 nM |  |  |
| Cc1cc([C@@H](C)Nc2ccc(Cl)nc2C(=O)NS(C)(=O)=O)c2nc(N3C[C@@H]4[C@H](C3)[C@H]4n3cc(C(F)(F)F)cn3)n(C)c(=O)c2c1 [Compound 741, 6-chloro-3-(((R)-1-(3,6-dimethyl-4-oxo-2-((1R,5S,6S)-6-(4-(trifluoromethyl)-1H-pyrazol-1-yl)-3-azabicyclo[3.1.0]hexan-3-yl)-3,4-dihydroquinazolin-8-yl)ethyl)amino)-N-(methylsulfonyl) picolinamide] | 500 to 1000 nM | ≥ 5000 nM |  |  |
| Cc1cc([C@@H](C)Nc2ccc(Cl)nc2C(=O)NS(C)(=O)=O)c2nc(C3(c4ccccc4)CC3)n(C)c(=O)c2c1 [Compound 830, (R)-6-chloro-3-((1-(3,6-dimethyl-4-oxo-2-(1-phenylcyclopropyl)-3,4-dihydroquinazolin-8-yl)ethyl)amino)-N-(methylsulfonyl) picolinamide] | 250 to 500 nM | ≥ 5000 nM |  |  |
| Cc1cc([C@@H](C)Nc2ccc(Cl)nc2C(=O)NS(C)(=O)=O)c2nc(N3CCC(n4nc(C#N)c5ccccc54)CC3)n(C)c(=O)c2c1 [Compound 304, (R)-6-chloro-3-((1-(2-(4-(3-cyano-1H-indazol-1-yl)piperidin-1-yl)-3,6-dimethyl-4-oxo-3,4-dihydroquinazolin-8-yl)ethyl)amino)-N-(methylsulfonyl) picolinamide] |  |  | 250 to 500 nM | ≥ 5000 nM |
| Cc1cc([C@@H](C)Nc2ccc(Cl)nc2C(=O)NS(C)(=O)=O)c2nc(N3CCC(c4ncc(Cl)cn4)CC3)n(C)c(=O)c2c1 [Compound 499, (R)-6-chloro-3-((1-(2-(4-(5-chloropyrimidin-2-yl)piperidin-1-yl)-3,6-dimethyl-4-oxo-3,4-dihydroquinazolin-8-yl)ethyl)amino)-N-(methylsulfonyl) picolinamide] | 250 to 500 nM | ≥ 5000 nM |  |  |
| [2H]C([2H])([2H])n1cc(F)c(C2CCN(c3nc4c([C@@H](C)Nc5ccc(Cl)nc5C(=O)NS(C)(=O)=O)cc(C)cc4c(=O)n3C)CC2)n1 [Compound 456, (R)-6-chloro-3-((1-(2-(4-(4-fluoro-1-(methyl-d3)-1H-pyrazol-3-yl)piperidin-1-yl)-3,6-dimethyl-4-oxo-3,4-dihydroquinazolin-8-yl)ethyl)amino)-N-(methylsulfonyl) picolinamide] | < 250 nM | ≥ 5000 nM |  |  |
| Cc1cc([C@@H](C)Nc2ccc(Cl)nc2C(=O)NS(C)(=O)=O)c2nc(-c3ccc4nn(C(F)F)cc4c3)n(C)c(=O)c2c1 [Compound 836, (R)-6-chloro-3-((1-(2-(2-(difluoromethyl)-2H-indazol-5-yl)-3,6-dimethyl-4-oxo-3,4-dihydroquinazolin-8-yl)ethyl)amino)-N-(methylsulfonyl) picolinamide] | < 250 nM | 1000 to 5000 nM |  |  |
| Cc1cc([C@@H](C)Nc2ccc(Cl)nc2C(=O)NS(C)(=O)=O)c2nc(N3C[C@@H]4C[C@H]3CN4c3cnc(C)c(F)c3)n(C)c(=O)c2c1 [Compound 608, 6-chloro-3-(((R)-1-(2-((1S,4S)-5-(5-fluoro-6-methylpyridin-3-yl)-2,5-diazabicyclo [2.2.1]heptan-2-yl)-3,6-dimethyl-4-oxo-3,4-dihydroquinazolin-8-yl)ethyl)amino)-N-(methylsulfonyl) picolinamide] | 500 to 1000 nM | ≥ 5000 nM |  |  |
| Cc1cc([C@@H](C)Nc2ccc(Cl)nc2C(=O)NS(C)(=O)=O)c2nc(-c3ccc(O[C@H]4CCN(C)CC4(F)F)nc3)n(C)c(=O)c2c1 [Compound 281, 6-chloro-3-(((R)-1-(2-(6-(((S)-3,3-difluoro-1-methylpiperidin-4-yl)oxy)pyridin-3-yl)-3,6-dimethyl-4-oxo-3,4-dihydroquinazolin-8-yl)ethyl)amino)-N-(methylsulfonyl) picolinamide] |  |  | < 250 nM | 1000 to 5000 nM |
| CC(=O)N1CCN(c2cc(F)c(-c3nc4c([C@@H](C)Nc5ccc(Cl)nc5C(=O)NS(C)(=O)=O)cc(C)cc4c(=O)n3C)cc2F)CC1 [Compound 800, (R)-3-((1-(2-(4-(4-acetylpiperazin-1-yl)-2,5-difluorophenyl)-3,6-dimethyl-4-oxo-3,4-dihydroquinazolin-8-yl)ethyl)amino)-6-chloro-N-(methylsulfonyl) picolinamide] | < 250 nM | 1000 to 5000 nM |  |  |
| Cc1cc([C@@H](C)Nc2ccc(Cl)nc2C(=O)NS(C)(=O)=O)c2nc(N3C[C@H]4C[C@@H](c5cnn(C)c5)[C@@H]3C4)n(C)c(=O)c2c1 [Compound 321, 6-chloro-3-(((R)-1-(3,6-dimethyl-2-((1S,4S,6RS)-6-(1-methyl-1H-pyrazol-4-yl)-2-azabicyclo[2.2.1]heptan-2-yl)-4-oxo-3,4-dihydroquinazolin-8-yl)ethyl)amino)-N-(methylsulfonyl) picolinamide] |  |  | 250 to 500 nM | 1000 to 5000 nM |
| Cc1cc([C@@H](C)Nc2ccc(Cl)nc2C(=O)NS(C)(=O)=O)c2nc(N3CCN(c4ccnc(C5CC5)n4)CC3)n(C)c(=O)c2c1 [Compound 590, (R)-6-chloro-3-((1-(2-(4-(2-cyclopropylpyrimidin-4-yl)piperazin-1-yl)-3,6-dimethyl-4-oxo-3,4-dihydroquinazolin-8-yl)ethyl)amino)-N-(methylsulfonyl) picolinamide] | < 250 nM | 1000 to 5000 nM |  |  |
| Cc1cc([C@@H](C)Nc2ccc(Cl)nc2C(=O)NS(C)(=O)=O)c2nc(-c3ccc(O[C@@H]4CCN(C)CC4(F)F)nc3)n(C)c(=O)c2c1 [Compound 244, 6-chloro-3-(((R)-1-(2-(6-(((R)-3,3-difluoro-1-methylpiperidin-4-yl)oxy)pyridin-3-yl)-3,6-dimethyl-4-oxo-3,4-dihydroquinazolin-8-yl)ethyl)amino)-N-(methylsulfonyl) picolinamide] |  |  | < 250 nM | 1000 to 5000 nM |
| CCS(=O)(=O)NC(=O)c1nc(Cl)ccc1N[C@H](C)c1cc(C)cc2c(=O)n(C)c(N3Cc4ccc(F)cc4C3)nc12 [Compound 110, (R)-6-chloro-N-(ethylsulfonyl)-3-((1-(2-(5-fluoroisoindolin-2-yl)-3,6-dimethyl-4-oxo-3,4-dihydroquinazolin-8-yl)ethyl)amino) picolinamide] |  |  | 250 to 500 nM | 1000 to 5000 nM |
| C[C@@H](Nc1ccc(Cl)nc1C(=O)NS(C)(=O)=O)c1cc(C2CC2)cc2c(=O)n(C)c(N3C[C@@H]4[C@H](C3)[C@H]4c3cnn(C)c3)nc12 [Compound 386, 6-chloro-3-(((R)-1-(6-cyclopropyl-3-methyl-2-((1R,5S,6S)-6-(1-methyl-1H-pyrazol-4-yl)-3-azabicyclo[3.1.0]hexan-3-yl)-4-oxo-3,4-dihydroquinazolin-8-yl)ethyl)amino)-N-(methylsulfonyl) picolinamide] |  |  | < 250 nM | 1000 to 5000 nM |
| Cc1cc([C@@H](C)Nc2ccc(Cl)nc2C(=O)NS(C)(=O)=O)c2nc(N3CCN(c4nccnc4C)CC3)n(C)c(=O)c2c1 [Compound 553, (R)-6-chloro-3-((1-(3,6-dimethyl-2-(4-(3-methylpyrazin-2-yl)piperazin-1-yl)-4-oxo-3,4-dihydroquinazolin-8-yl)ethyl)amino)-N-(methylsulfonyl) picolinamide] | < 250 nM | 1000 to 5000 nM |  |  |
